Assays:
Ba/F3-AXL cells = test: Assay for inhibiting the proliferation of Ba/F3-AXL cells (CCK-8); type: cell-based; details: 72 hours of incubation, medium with 100 ng/mL hGas6, CCK-8
Experimental: The values were then imported into Graphpad Prism 5 software for curve fitting, and IC50 was calculated.

Ba/F3 LMNA-NTRK1 cells = test: Assay for inhibiting the proliferation of Ba/F3 LMNA-NTRK1 cells (CCK-8); type: cell-based; details: Mus musculus, BaF3
Method in brief: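 Viability was read as absorbance at 450 nm following 1–2 h CCK-8 incubation at 37 °C, relative to control and blank wells.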

c-MET kinase = c-MET kinase (Homo sapiens (Human), UniProt P08581); test: Assay of small molecular compounds for inhibiting the activity of c-MET kinase (LANCE TR-FRET); type: biochemical; details: read-out: CMET IC50
Method in brief: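 Eleven final concentrations from 2500 nM down to 0.042 nM, in 4% DMSO, were tested against human c-MET (2× stock 2 nM), with compound and enzyme premixed for 5 min. The phosphorylation reaction used 4× stock of 400 nM ULight-JAK-1 peptide and 40 μM ATP for 60 min at room temperature, then stop and detection steps. TR-FRET percent inhibition against positive and negative controls gave the IC50.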

Sequence of c-MET kinase (P08581 25-1390): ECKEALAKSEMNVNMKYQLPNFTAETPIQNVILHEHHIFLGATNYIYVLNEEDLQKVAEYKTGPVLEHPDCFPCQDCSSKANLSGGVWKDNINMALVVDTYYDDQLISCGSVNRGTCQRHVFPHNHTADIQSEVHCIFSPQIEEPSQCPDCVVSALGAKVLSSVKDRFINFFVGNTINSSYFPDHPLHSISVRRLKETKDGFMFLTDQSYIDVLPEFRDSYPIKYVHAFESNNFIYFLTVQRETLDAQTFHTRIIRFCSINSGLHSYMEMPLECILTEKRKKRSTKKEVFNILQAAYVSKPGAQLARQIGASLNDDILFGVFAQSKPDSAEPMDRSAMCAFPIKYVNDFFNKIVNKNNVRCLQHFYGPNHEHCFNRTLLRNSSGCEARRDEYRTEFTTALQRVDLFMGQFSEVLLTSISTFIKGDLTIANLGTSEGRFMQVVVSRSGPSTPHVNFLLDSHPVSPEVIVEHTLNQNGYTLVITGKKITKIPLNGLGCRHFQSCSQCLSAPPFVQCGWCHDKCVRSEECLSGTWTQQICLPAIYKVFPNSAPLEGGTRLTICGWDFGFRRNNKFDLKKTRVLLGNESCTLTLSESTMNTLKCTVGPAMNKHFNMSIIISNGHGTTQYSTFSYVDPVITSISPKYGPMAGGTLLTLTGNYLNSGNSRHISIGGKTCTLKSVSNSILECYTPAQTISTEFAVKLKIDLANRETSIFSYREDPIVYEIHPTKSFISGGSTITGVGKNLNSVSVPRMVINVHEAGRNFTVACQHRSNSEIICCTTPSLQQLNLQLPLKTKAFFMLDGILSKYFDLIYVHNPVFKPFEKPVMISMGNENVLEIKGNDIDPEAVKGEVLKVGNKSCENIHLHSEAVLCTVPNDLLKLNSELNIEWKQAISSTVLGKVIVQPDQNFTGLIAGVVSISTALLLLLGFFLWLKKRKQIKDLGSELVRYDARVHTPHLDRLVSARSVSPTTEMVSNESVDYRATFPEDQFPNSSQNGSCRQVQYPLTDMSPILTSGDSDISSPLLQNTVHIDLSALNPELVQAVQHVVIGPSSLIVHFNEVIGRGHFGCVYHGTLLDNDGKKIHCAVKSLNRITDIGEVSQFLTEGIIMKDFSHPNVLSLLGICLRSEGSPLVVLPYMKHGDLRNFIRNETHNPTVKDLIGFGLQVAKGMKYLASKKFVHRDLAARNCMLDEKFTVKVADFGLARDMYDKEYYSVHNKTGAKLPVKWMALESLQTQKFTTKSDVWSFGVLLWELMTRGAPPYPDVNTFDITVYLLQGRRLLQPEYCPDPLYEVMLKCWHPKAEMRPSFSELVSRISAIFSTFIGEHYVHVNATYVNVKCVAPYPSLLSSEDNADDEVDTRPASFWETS

| SMILES | IC50 (Ba/F3-AXL cells) [nM] | IC50 (Ba/F3 LMNA-NTRK1 cells) [nM] | IC50 (c-MET kinase) [nM] |
| --- | --- | --- | --- |
| COCCOc1cc2nccc(Oc3ccc(NC(=O)c4cn(C(C)C)c(=O)n(-c5ccc(F)cc5)c4=O)cc3F)c2c2c1OCCO2 [Example 43, N-(3-fluoro-4-((5-(2-methoxyethoxy)-2,3-dihydro-[1,4]dioxino[2,3-f]quinolin-10-yl)oxy)phenyl)-3-(4-fluorophenyl)-1-isopropyl-2,4-dioxo-1,2,3,4-tetrahydropyrimidine-5-carboxamide] | < 50 | < 50 | ≤ 50 |
| CCOc1ccn(-c2ccc(F)cc2)c(=O)c1C(=O)Nc1ccc(Oc2ccnc3cc(OCC(C)C)c4c(c23)OCCO4)c(F)c1 [Example 58, N-(4-((5-(isobutyloxy)-2,3-dihydro-[1,4]dioxino[2,3-f]quinolin-10-yl)oxy)-3-fluorophenyl)-4-ethoxy-1-(4-fluorophenyl)-2-oxo-1,2-dihydropyridine-3-carboxamide] | < 50 | – | ≤ 50 |
| CCOc1ccn(-c2ccc(F)cc2)c(=O)c1C(=O)Nc1ccc(Oc2ccnc3cc(OCC4CC4)c4c(c23)OCCO4)c(F)c1 [Example 59, N-(4-((5-(cyclopropylmethoxy)-2,3-dihydro-[1,4]dioxino[2,3-f]quinolin-10-yl)oxy)-3-fluorophenyl)-4-ethoxy-1-(4-fluorophenyl)-2-oxo-1,2-dihydropyridine-3-carboxamide] | < 50 | – | ≤ 50 |
| CC(=O)N1CCN(CCCOc2cc3nccc(Oc4ccc(NC(=O)c5cn(C(C)C)c(=O)n(-c6ccc(F)cc6)c5=O)cc4F)c3c3c2OCCO3)CC1 [Example 75, N-(3-fluoro-4-((5-(3-(4-acetylpiperazin-1-yl)propoxy)-2,3-dihydro-[1,4]dioxino[2,3-f]quinolin-10-yl)oxy)phenyl)-3-(4-fluorophenyl)-1-isopropyl-2,4-dioxo-1,2,3,4-tetrahydropyrimidine-5-carboxamide] | – | < 50 | ≤ 50 |
| CC(C)n1cc(C(=O)Nc2ccc(Oc3ccnc4cc(OCCCN5CCS(=O)(=O)CC5)c5c(c34)OCCO5)c(F)c2)c(=O)n(-c2ccc(F)cc2)c1=O [Example 76, N-(3-fluoro-4-((5-(3-(1,1-dioxidothiomorpholino)propoxy)-2,3-dihydro-[1,4]dioxino[2,3-f]quinolin-10-yl)oxy)phenyl)-3-(4-fluorophenyl)-1-isopropyl-2,4-dioxo-1,2,3,4-tetrahydropyrimidine-5-carboxamide] | < 50 | < 50 | 50 to 500 |
| CC(C)n1cc(C(=O)Nc2ccc(Oc3ccnc4cc(OCCCN5CCCC5)c5c(c34)OCCO5)c(F)c2)c(=O)n(-c2ccc(F)cc2)c1=O [Example 77, N-(3-fluoro-4-((5-(3-(pyrrolidin-1-yl)propoxy)-2,3-dihydro-[1,4]dioxino[2,3-f]quinolin-10-yl)oxy)phenyl)-3-(4-fluorophenyl)-1-isopropyl-2,4-dioxo-1,2,3,4-tetrahydropyrimidine-5-carboxamide] | < 50 | < 50 | ≤ 50 |
| CC(C)n1cc(C(=O)Nc2ccc(Oc3ccnc4cc(OCCCO)c5c(c34)OCCO5)c(F)c2)c(=O)n(-c2ccc(F)cc2)c1=O [Example 79, N-(3-fluoro-4-((5-(3-hydroxypropoxy)-2,3-dihydro-[1,4]dioxino[2,3-f]quinolin-10-yl)oxy)phenyl)-3-(4-fluorophenyl)-1-isopropyl-2,4-dioxo-1,2,3,4-tetrahydropyrimidine-5-carboxamide] | – | < 50 | ≤ 50 |
| CC(C)Oc1cc2nccc(Oc3ccc(NC(=O)c4cn(C)c(=O)n(-c5ccc(F)cc5)c4=O)cc3F)c2c2c1OCCO2 [Example 88, N-(3-fluoro-4-((5-isopropoxy-2,3-dihydro-[1,4]dioxino[2,3-f]quinolin-10-yl)oxy)phenyl)-3-(4-fluorophenyl)-1-methyl-2,4-dioxo-1,2,3,4-tetrahydropyrimidine-5-carboxamide] | < 50 | – | ≤ 50 |

— patent US12202835B2, “Substituted aromatic ring-linked dioxinoquinazolines and dioxinoquinolines as kinase inhibitors” (BEIJING SCITECH-MQ PHARMACEUTICALS LIMITED, priority 2018, dated 2025)
